Values joined by “and” are separate entries in the source; they are usually repeats but may differ in a detail not shown here. Identical values can stand only once. “Also recorded” adds a separate entry of the source. Starred links: 1 amine or outer side, 2 acyl side, 3 side chain; linkers in the order of their positions; H or OH if unused. Non-standard residues stand in square brackets, D forms with d. Residues, ends and D or L forms follow the SMILES beside them. *: point of attachment. X1 = O=C(O)CC[C@H](NC(=O)N[C@@H](CCCCNC(=O)CCCCCCC(=O)*)C(=O)O)C(=O)O; Dolaproine = CO[C@@H]([C@@H]1CCCN1)[C@@H](C)C(=O)O; Dil = CC[C@H](C)[C@H](NC)[C@@H](CC(=O)O)OC; PABC = O=C(OCc1ccc(N[*:1])cc1)[*:2]; X2 = C[C@@H](N*)[C@@H](O)c1ccccc1; Cit = NC(=O)NCCC[C@H](N)C(=O)O; NMeV = CN[C@H](C(=O)O)C(C)C
Assays:
[1] = In vivo toxicity in healthy mice (weight, survival, histopathology); set-up: species or system C57BL/6 mice
Description: (§1) The potential toxicity of SBPD-1 was evaluated in immunocompetent animals. MMAE (80 μg/kg), SBPD-1 (160 μg/kg), and 5% DMSO were administered to healthy C57BL/6 mice (n=5). Animals were monitored for 80 days after initiation of administration. […] Lung, liver, kidneys, salivary and lacrimal glands were removed from all tested animals at Day 80 after initiation of SBPD-1 treatment. […] Peripheral blood also was obtained from mice injected with vehicle, SBPD-1, and healthy untreated animals, and prepared serum for chemistry studies (n=5).
(§2) Male C57BL/6 mice were purchased from Jackson Laboratory. Ten-week-old mice were injected with the indicated doses of MMAE (formulated in 5% DMSO), SBPD-1 (formulated in saline) or 5% DMSO intraperitoneally (daily for 30 days, n=5). Animals were monitored daily for weight changes and other abnormalities for 80 days. Animals were euthanized in a CO2 chamber at day 80, and blood, lung, liver, kidney, salivary gland, and lacrimal gland were collected for complete blood counts, blood chemistry, and histopathological analyses. Complete blood counts including white blood cells (WBC), red blood cells (RBC), hemoglobin (HGB), hematocrit (HCT), mean corpuscular volume (MCV), mean corpuscular hemoglobin (MCH), mean corpuscular hemoglobin concentration (MCHC), and platelet (PLT) were measured using scil Vet ABC™ Hematology Analyzer (scil animal care company, Gurnee, IL). Blood chemistry parameters including blood urea nitrogen (BUN), glucose (GLU), Alkaline Phosphatase (ALP), total protein (T-Pro), Alanine aminotransferase (ALT) and Creatinine (Cre) were measured with Spotchem EZ chemistry analyzer (Arkray USA, Edina, MN). Hematoxylin and eosin slides were generated for five organs and examined by certified veterinary pathologist.

PSMA+ PC3 PIP cells = assay: In vitro cytotoxicity (XTT cell proliferation assay), PSMA+ PC3 PIP cells; assay type: cell-based, human
PSMA− PC3 flu cells = assay: In vitro cytotoxicity (XTT cell proliferation assay), PSMA- PC3 flu cells; assay type: cell-based, human
PSMA− PC3 flu tumors = assay: Subcutaneous xenograft efficacy, PSMA- PC3 flu tumors; assay type: in vivo, NSG mice
PSMA+PC3 PIP tumors = assay: Subcutaneous xenograft efficacy, PSMA+ PC3 PIP tumors; assay type: in vivo, NSG mice; conditions: for median survival time: 4-fold tumor volume scored as death
PSMA+PC3/ML/PSMA cells = assay: Experimental metastatic model of PSMA-expressing PC
Description: A PSMA-expressing experimental metastatic model of human PC was used to evaluate efficacy of SBPD-1 on established metastatic tumors. […] PSMA+PC3/ML/PSMA cells were administered to NSG mice intravenously (IV) and tumors were allowed to establish for four weeks. PC3/ML/PSMA cells express firefly luciferase as an imaging reporter to allow tumor development to be monitored via weekly bioluminescence imaging (BLI).
For the metastatic model, NSG mice were injected with 0.75 million PC3/ML/PSMA cells via the tail vein. […] BLI was performed weekly using the IVIS Spectrum in vivo imaging system (Perkin Elmer, Waltham, MA).

[2] = Complete blood count in healthy mice; assay type: in vivo; conditions: C57BL/6 mice, 0.16 mg/kg
Description: as §2

[3] = Blood chemistry in healthy mice; assay type: in vivo; conditions: C57BL/6 mice
Description: as §1, §2

recombinant cathepsin B = target: T1, recombinant cathepsin B (Homo sapiens, UniProt P07858); assay: Release of MMAE from prodrug by recombinant cathepsin B; assay type: biochemical; conditions: within 3 h of incubation with recombinant cathepsin B
T1 construct: purchased MilliporeSigma C8571
Description: Release of MMAE from prodrugs by a recombinant cathepsin B was analyzed using a modified method from previously published work. Dubowchik et al., 2002. Prodrug stock solutions (8 μL, 10 mM) were added to the 2 mL cathepsin B (MilliporeSigma, Cat #C8571, Burlington, MA, USA) containing buffer (25 mM acetate, 1 mM EDTA, pH 5, pre-warmed at 37° C.) at the final concentration of 30 nM (cathepsin B) and 40 μM (prodrug). Aliquots (200 μL) were periodically removed and enzymatic activity was stopped by the addition of thioprotease inhibitor E-64 (30 nM in the final solution, MilliporeSigma, Cat #E3132). The samples were centrifuged and the supernatants were analyzed by HPLC (Waters 600 E coupled with Varian prostar detector, Milford, MA, USA). Samples were prepared at 0, 10, 20, 30, 60, 90, and 120 min. Experiments were performed in triplicate.

[4] = Serum stability in murine serum (HPLC); assay type: in vitro ADME, mouse
Description: Serum stability of prodrugs was analyzed using a modified method from previously published work. Chu et al., 2012. Prodrug stock solution (8 μL, 10 mM) was incubated with 100% mouse serum (final concentration of the serum was 80% after the mixing with prodrug solution) at 37° C. Aliquots (50 μL) were periodically removed at 2, 4, 8, 24, and 48 h, and diluted with cold ice CH3OH (100 μL) to precipitate proteins. The samples were centrifuged, and the supernatants were analyzed by HPLC. Stability was calculated based on the peak area of the prodrug at each time point. Experiments were performed in triplicate.

[5] = Urinalyses from subcutaneous xenograft model (urine reagent strips); conditions: for urine protein / urine specific gravity: individual mice
[6] = Serum stability in human serum; assay type: in vitro ADME
Description: Prior to in vivo potency, the stability of SBPD-1 and SBPD-2 in murine serum was evaluated. While 90% of SBPD-2 remained intact for 48 h in murine serum (FIG. 3a), SBPD-1 was metabolized more quickly in murine serum (FIG. 3a). […] SBPD-1, however, was stable in human serum (FIG. 3a). It has been reported that the valine-citrulline linker is stable in human and monkey serum, but that it can be hydrolyzed in mouse plasma via extracellular carboxylesterase 1c. Dorywalska et al., 2016; Anami et al., 2018. Based on those stability results, small, fractionated doses were applied for the murine efficacy study to avoid systemic toxicity that could affect the overall survival of the test animals.

CC[C@H](C)[C@@H]([C@@H](CC(=O)N1CCC[C@H]1[C@H](OC)[C@@H](C)C(=O)N[C@H](C)[C@@H](O)c1ccccc1)OC)N(C)C(=O)[C@@H](NC(=O)[C@@H](NC)C(C)C)C(C)C [MMAE, monomethyl auristatin E] (H-[NMeV]V[Dil][Dolaproine]-X2)
toxicity (weight loss, euthanasia) ([1]; healthy C57BL/6 mice, MMAE (free drug) 80 μg/kg IP daily for 30 days): severe toxicity
IC50 (PSMA+ PC3 PIP cells): 0.0392 nM
IC50 (PSMA− PC3 flu cells): 0.04 nM

CC[C@H](C)[C@@H]([C@@H](CC(=O)N1CCC[C@H]1[C@H](OC)[C@@H](C)C(=O)N[C@H](C)[C@@H](O)c1ccccc1)OC)N(C)C(=O)[C@@H](NC(=O)[C@H](C(C)C)N(C)C(=O)OCc1ccc(NC(=O)[C@H](CCCNC(N)=O)NC(=O)[C@@H](NC(=O)CCCCCCC(=O)NCCCC[C@H](NC(=O)N[C@@H](CCC(=O)O)C(=O)O)C(=O)O)C(C)C)cc1)C(C)C [SBPD-1, (6S,9S,24S,28S)-1-Amino-6-((4-((5S,8S,11S,12R)-11-((S)-sec-butyl)-12-(2-((S)-2-((1R,2R)-3-(((1S,2R)-1-hydroxy-1-phenylpropan-2-yl)amino)-1-methoxy-2-methyl-3-oxopropyl)pyrrolidin-1-yl)-2-oxoethyl)-5,8-diisopropyl-4,10-dimethyl-3,6,9-trioxo-2,13-dioxa-4,7,10-triazatetradecyl)phenyl)carbamoyl)-9-isopropyl-1,8,11,18,26-pentaoxo-2,7,10,19,25,27-hexaazatriacontane-24,28,30-tricarboxylic acid] (X1-V[Cit][PABC][NMeV]V[Dil][Dolaproine]-X2)
median survival time (PSMA− PC3 flu tumors; 20 μg/kg daily IP for 30 days): 15 days
median survival time (PSMA− PC3 flu tumors; 40 μg/kg daily IP for 30 days): 15 days
median survival time (PSMA− PC3 flu tumors; 80 μg/kg daily IP for 30 days): 20 days
median survival time (PSMA+PC3 PIP tumors; 20 μg/kg daily IP for 30 days): 17 days
time until previously undetectable tumors could be re-measured (PSMA+PC3 PIP tumors; 40 μg/kg): Approximately one week
median survival time (PSMA+PC3 PIP tumors; 40 μg/kg daily IP for 30 days): 54 days
time until re-appearance of tumors (PSMA+PC3 PIP tumors; 80 μg/kg): Two weeks
median survival time (PSMA+PC3 PIP tumors; 80 μg/kg daily IP for 30 days): 69 days
tumors at completion of treatment (PSMA+PC3 PIP tumors; doses of 40 and 80 μg/kg): undetectable
median survival (PSMA+PC3/ML/PSMA cells; 40 μg/kg daily IP for 30 days): 47 days
median survival (PSMA+PC3/ML/PSMA cells; 80 μg/kg daily IP for 30 days): 56 days
median survival (PSMA+PC3/ML/PSMA cells; 160 μg/kg daily IP for 30 days): 58 days
complete blood counts, abnormalities [2]: no abnormalities except for lower white blood cell count
HCT ([2]; individual mice): 36% and 36.6% and 32.2% and 35.6% and 35.8%
HGB ([2]; individual mice): 13.4 g/dl (2×) and 13.8 g/dl and 12.4 g/dl and 14 g/dl
MCH ([2]; individual mice): 33.8 pg (3×) and 35 pg and 34.8 pg
MCHC ([2]; individual mice): 75.8 g/dl (3×) and 76.4 g/dl and 78.2 g/dl
MCV ([2]; individual mice): 90 μm^3 (4×) and 92 μm^3
PLT ([2]; individual mice): 1280 10^3/mm^3 (2×) and 1068 10^3/mm^3 and 1132 10^3/mm^3 and 1262 10^3/mm^3
RBC ([2]; individual mice): 8.08 10^6/mm^3 and 8.16 10^6/mm^3 and 7.02 10^6/mm^3 and 7.98 10^6/mm^3 and 8.02 10^6/mm^3
WBC ([2]; individual mice): 1.6 10^3/mm^3 (2×) and 1.8 10^3/mm^3 and 1.4 10^3/mm^3 and 2 10^3/mm^3
histopathological examination of lung, liver, kidneys, salivary and lacrimal glands ([1]; Day 80 after initiation of treatment, 160 μg/kg): no tissue damage
signs of toxicity / weight ([1]; healthy C57BL/6 mice, 160 μg/kg IP daily for 30 days, monitored 80 days): did not show any signs of toxicity; also recorded: did not induce toxicity
BUN, creatinine, glucose, ALP, T-Pro, ALT compared with untreated mice ([3]; 160 μg/kg): did not show differences
ALP ([3]; 0.16 mg/kg, individual mice): 94 IU/L (2×) and 108 IU/L and 96 IU/L and 85 IU/L
ALT ([3]; 0.16 mg/kg, individual mice): 21 IU/L and 31 IU/L and 22 IU/L and 14 IU/L and 28 IU/L
BUN ([3]; 0.16 mg/kg, individual mice): 28 mg/dl (2×) and 37 mg/dl (2×) and 27 mg/dl
Cre ([3]; 0.16 mg/kg, individual mice): 1 mg/dl and 1.2 mg/dl and 1.1 mg/dl (2×) and 0.8 mg/dl
GLU ([3]; 0.16 mg/kg, individual mice): 188 mg/dL and 248 mg/dL and 285 mg/dL and 219 mg/dL and 189 mg/dL
T-Pro ([3]; 0.16 mg/kg, individual mice): 6.1 g/dl and 6.2 g/dl and 5.9 g/dl (2×) and 6 g/dl
MMAE released (recombinant cathepsin B): 80%
intact in serum ([4]; 8 h of incubation): more than 80%
fraction representing parent compound ([4]; 24 h): less than half
degradation of prodrug ([4]; by 48 h of incubation): the majority of the prodrug was fully degraded
urine protein ([5]; Day 9, PC3/PIP, 0.02 mg/kg): 30
urine specific gravity ([5]; Day 9, PC3/PIP, 0.02 mg/kg): 1.025 (3×) and 1.02 (2×)
urine protein ([5]; Day 9, PC3/PIP, 0.04 mg/kg): 30 (3×) and trace (2×)
urine specific gravity ([5]; Day 9, PC3/PIP, 0.04 mg/kg): 1.025
urine protein ([5]; Day 9, PC3/PIP, 0.08 mg/kg): trace and 30 (4×)
urine specific gravity ([5]; Day 9, PC3/PIP, 0.08 mg/kg): 1.025
urine protein ([5]; Day 9, PC3/flu, 0.02 mg/kg): 30
urine specific gravity ([5]; Day 9, PC3/flu, 0.02 mg/kg): 1.025 (4×) and 1.02
urine protein ([5]; Day 9, PC3/flu, 0.04 mg/kg): 30
urine specific gravity ([5]; Day 9, PC3/flu, 0.04 mg/kg): 1.025
urine protein ([5]; Day 9, PC3/flu, 0.08 mg/kg): 300 (2×) and 30 (2×) and 100
urine specific gravity ([5]; Day 9, PC3/flu, 0.08 mg/kg): 1.025
urine protein ([5]; Day 20, PC3/PIP, 0.02 mg/kg): 30
urine specific gravity ([5]; Day 20, PC3/PIP, 0.02 mg/kg): 1.025
urine protein ([5]; Day 20, PC3/PIP, 0.04 mg/kg): 30
urine specific gravity ([5]; Day 20, PC3/PIP, 0.04 mg/kg): 1.025
urine protein ([5]; Day 20, PC3/PIP, 0.08 mg/kg): 30 (3×) and 100 (2×)
urine specific gravity ([5]; Day 20, PC3/PIP, 0.08 mg/kg): 1.025
urine protein ([5]; Day 20, PC3/flu, 0.02 mg/kg): 30
urine specific gravity ([5]; Day 20, PC3/flu, 0.02 mg/kg): 1.025 (3×) and 1.01 and 1.03
urine protein ([5]; Day 20, PC3/flu, 0.04 mg/kg): 30
urine specific gravity ([5]; Day 20, PC3/flu, 0.04 mg/kg): 1.025 (2×) and 1.03 (2×)
urine protein ([5]; Day 20, PC3/flu, 0.08 mg/kg): 300 (2×) and 30 (3×)
urine specific gravity ([5]; Day 20, PC3/flu, 0.08 mg/kg): 1.025
urine protein level and specific gravity (acute renal toxicity) ([5]; all test animals, Days 9 and 20, any dose tested): normal
stability in human serum [6]: stable

CC[C@H](C)[C@@H](C(CC(=O)N1CCC[C@H]1[C@H](OC)[C@@H](C)C(=O)N[C@H](C)[C@@H](O)c1ccccc1)OC)N(C)C(=O)[C@@H](NC(=O)[C@H](C(C)C)N(C)C(=O)CC[C@H](NC(=O)CCCCCCC(=O)NCCCC[C@H](NC(=O)N[C@@H](CCC(=O)O)C(=O)O)C(=O)O)C(=O)O)C(C)C (stereo partly drawn) [SBPD-2, (4S,7S,10S,15S,30S,34S)-4-((S)-Sec-butyl)-3-(2-((S)-2-((1R,2R)-3-(((1S,2R)-1-hydroxy-1-phenylpropan-2-yl)amino)-1-methoxy-2-methyl-3-oxopropyl)pyrrolidin-1-yl)-2-oxoethyl)-7,10-diisopropyl-5,11-dimethyl-6,9,12,17,24,32-hexaoxo-2-oxa-5,8,11,16,25,31,33-heptaazahexatriacontane-15,30,34,36-tetracarboxylic acid]
remained intact ([4]; 48 h): 90%
